Where a name gives a salt, the structure may show the parent alone.
Legend:
[1] = test system: diffuse midline glioma, H3 K27M-mutant (DMG H3K27M); details: patients with diffuse midline glioma; cited from earlier work
[2] = Dynamic vapor sorption (DVS) water uptake; type: physicochemical; details: for total water uptake / water uptake: DVS; for hygroscopicity: characterised by DVS water uptake
Description: Dynamic Vapor Sorption (DVS)
Vapor sorption data were collected on a Surface Measurement System DVS Intrinsic instrument. Samples were not dried prior to analysis. Sorption and desorption data were collected over the stated range from at 10% RH increments under a nitrogen purge. The equilibrium criterion used […]

[3] = Relative humidity (RH) experiments / exposure to moisture, solid form change; type: physicochemical; details: for form change: exposure to moisture / relative humidity (RH) experiments
Description: The three batches of Compound I (ONC206·2HCl) manufactured to date are described below. The first two processes consistently produced Form 1 (i.e., desolvated anhydrous form, Form 1).

[4] = Solid form stability at ambient conditions; type: physicochemical

Structure (SMILES) | total water uptake [2] [%] | total water uptake ([2]; moles of water) | hygroscopicity [2] | water uptake ([2]; relative humidity of up to 95%) [%] | other results
Cc1ccccc1CN1C(=O)C2=C(CCN(Cc3ccccc3)C2)N2CCN=C12 [ONC201] |  |  |  |  | tumor regressions [1]: induced durable tumor regressions
O=C1C2=C(CCN(Cc3ccccc3)C2)N2CCN=C2N1Cc1ccc(F)cc1F [Compound I Tosylate Form A, 7-benzyl-4-(2,4-difluorobenzyl)-2,4,6,7,8,9-hexahydroimidazo[1,2-a]pyrido[3,4-e]pyrimidin-5(1H)-one] | 1.3 | 0.4 mol | slightly hygroscopic |  | water uptake ([2]; relative humidity of up to 96%): 1.3%
O=C1C2=C(CCN(Cc3ccccc3)C2)N2CCN=C2N1Cc1ccc(F)cc1F [Compound I Form 1, 7-benzyl-4-(2,4-difluorobenzyl)-2,4,6,7,8,9-hexahydroimidazo[1,2-a]pyrido[3,4-e]pyrimidin-5(1H)-one] | 7.5 | ~ 2.2 moles | hygroscopic |  | form change [3]: tends to convert into Form 2; hygroscopicity ([3]; statement in Example 1): hygroscopic; water uptake ([2]; relative humidity of 65% to 85%): 6.7%; water uptake ([2]; relative humidity of 85% to 95%): 0.3%; water uptake ([2]; relative humidity of up to 65%): 0.5%
O=C1C2=C(CCN(Cc3ccccc3)C2)N2CCN=C2N1Cc1ccc(F)cc1F [Compound I Form 2, 7-benzyl-4-(2,4-difluorobenzyl)-2,4,6,7,8,9-hexahydroimidazo[1,2-a]pyrido[3,4-e]pyrimidin-5(1H)-one] | 2.5 | ~ 0.7 moles | hygroscopic |  | form change [3]: no form change was observed; water uptake ([2]; relative humidity of 5% to 25%): 1.8%; water uptake ([2]; relative humidity of 25% to 95%): 0.6%
O=C1C2=C(CCN(Cc3ccccc3)C2)N2CCN=C2N1Cc1ccc(F)cc1F [Compound I Material 14, 7-benzyl-4-(2,4-difluorobenzyl)-2,4,6,7,8,9-hexahydroimidazo[1,2-a]pyrido[3,4-e]pyrimidin-5(1H)-one] |  |  |  |  | stability of the solid form [4]: metastable
O=C1C2=C(CCN(Cc3ccccc3)C2)N2CCN=C2N1Cc1ccc(F)cc1F [Compound I Form A, 7-benzyl-4-(2,4-difluorobenzyl)-2,4,6,7,8,9-hexahydroimidazo[1,2-a]pyrido[3,4-e]pyrimidin-5(1H)-one] | 0.3 | < 0.1 mol | non-hygroscopic | 0.3 | 
O=C1C2=C(CCN(Cc3ccccc3)C2)N2CCN=C2N1Cc1ccc(F)cc1F [Compound I Besylate Form A, 7-benzyl-4-(2,4-difluorobenzyl)-2,4,6,7,8,9-hexahydroimidazo[1,2-a]pyrido[3,4-e]pyrimidin-5(1H)-one] | 0.3 | < 0.1 mol | non-hygroscopic | 0.3 | 
O=C1C2=C(CCN(Cc3ccccc3)C2)N2CCN=C2N1Cc1ccc(F)cc1F [Compound I Fumarate Form A, 7-benzyl-4-(2,4-difluorobenzyl)-2,4,6,7,8,9-hexahydroimidazo[1,2-a]pyrido[3,4-e]pyrimidin-5(1H)-one] | 0.7 | 0.1 mol | slightly hygroscopic | 0.7 | 
O=C1C2=C(CCN(Cc3ccccc3)C2)N2CCN=C2N1Cc1ccc(F)cc1F [Compound I Sulfate Form A, 7-benzyl-4-(2,4-difluorobenzyl)-2,4,6,7,8,9-hexahydroimidazo[1,2-a]pyrido[3,4-e]pyrimidin-5(1H)-one] | 2.5 | 1.3 mol | slightly hygroscopic |  | water uptake ([2]; relative humidity of up to 96%): 2.5%
